Experiments:
[1] = tested on: IL-6; assay: Initial drug screen (Prestwick Chemical Library), IL-6 ELISA of medium; assay type: cell-based, human; conditions: 2.5 μM, 48 hours, HCA2 fibroblasts, 0.2% serum
Description: The initial drug screen was performed in a 96-well format using automated liquid handling with a Biomek FX (Beckman Coulter, CA). Senescent cells were plated 24 hours after X-irradiation at 7,500 cells per well in 96-well plates. Six days after plating the senescent cells, the pre-senescent cells were plated at 7,500 cells per well in 96-well plates. Twenty-four hours after pre-senescent plating, both pre-senescent and senescent cells were washed and incubated in low (0.2%) serum for 48 hours to arrest cell proliferation of the pre-senescent cells. […] Forty-eight hours after compound addition, the medium in each well was removed and frozen for assay by ELISA to quantitate the levels of IL-6. The cells, which remained in the wells after the medium was removed, were lysed and ATP levels were measured (ATPlite 1-step assay, Perkin Elmer, MA) to exclude compounds that lowered IL-6 through toxicity (cell death). Experimental wells in each plate were normalized to plate mean or same-plate DMSO controls for the ELISA and ATP assays, respectively.
To identify small molecules that may be potential SASP modulators, a screening strategy that entailed administering compounds to parallel 96-well plates containing human fibroblasts (strain HCA2) that were either quiescent or senescent was developed. […] After 48 hours, the medium from each well was removed, and the cells were lysed. […] Cell lysates were assayed for ATP as a surrogate for cell number.

[2] = tested on: HCA2 human fibroblasts; conditions: 2.5 μM, 48 hours
Description: The initial drug screen was performed in a 96-well format using automated liquid handling with a Biomek FX (Beckman Coulter, CA). Senescent cells were plated 24 hours after X-irradiation at 7,500 cells per well in 96-well plates. Six days after plating the senescent cells, the pre-senescent cells were plated at 7,500 cells per well in 96-well plates. Twenty-four hours after pre-senescent plating, both pre-senescent and senescent cells were washed and incubated in low (0.2%) serum for 48 hours to arrest cell proliferation of the pre-senescent cells. Drugs from the Prestwick Chemical Library, which contains 1120 bio-available compounds in DMSO, were given to the cells at 2.5 μM in media containing 0.2% serum. Forty-eight hours after compound addition, the medium in each well was removed and frozen for assay by ELISA to quantitate the levels of IL-6. The cells, which remained in the wells after the medium was removed, were lysed and ATP levels were measured (ATPlite 1-step assay, Perkin Elmer, MA) to exclude compounds that lowered IL-6 through toxicity (cell death). Experimental wells in each plate were normalized to plate mean or same-plate DMSO controls for the ELISA and ATP assays, respectively.
To identify small molecules that may be potential SASP modulators, a screening strategy that entailed administering compounds to parallel 96-well plates containing human fibroblasts (strain HCA2) that were either quiescent or senescent was developed. The compounds tested comprised the Prestwick Chemical Library, a collection of approximately 1,120 Federal Drug Administration-approved drugs. The compounds were added to duplicate wells at a single concentration (2.5 μM). After 48 hours, the medium from each well was removed, and the cells were lysed. […] Cell lysates were assayed for ATP as a surrogate for cell number.

[3] = tested on: IL-6; assay: IL-6 ELISA of conditioned media from X-irradiated senescent HCA2 fibroblasts; assay type: cell-based, human; conditions: 50 nM corticosterone or 100 nM cortisol; rIL-1α given six days after irradiation, 24 hours
Description: To validate glucocorticoids as SASP regulators, they were added within 15 min after irradiation (unless otherwise indicated). For cells induced to senesce by MKK6 or RAS overexpression, glucocorticoid treatment started 16 hours after infection. Glucocorticoids were re-added in fresh media every other day. Six days after irradiation or selection, cells were given serum-free DMEM with or without glucocorticoid for 24 hours; the conditioned media were collected and frozen for ELISAs.
Conditioned media were filtered and stored at −80° C. Cell numbers were determined in every experiment. ELISAs were performed using kits and procedures from PerkinElmer (IL-6 AL223F). Data were normalized and expressed as pg/ml/cell/24 h.
To confirm the ability of corticosterone to suppress senescence-associated IL-6 secretion, fresh HCA2 fibroblast cultures were prepared, and senescence was induced by X-irradiation (10 Gy). Under these conditions, cells undergo growth arrest within 24-48 hours, but require 4-5 days before SASP components are detected in the medium (Coppe et al., 2008, PLoS Biol. 6:2853-2868; Rodier et al., 2009, Nature Cell Biol. 11:973-979; Coppe et al., 2010, PLoS ONE 5:e9188; Freund et al., 2011, EMBO J. 30:1536-1548). Varying concentrations of corticosterone were added immediately after irradiation, and the cells were maintained in the drug for 6 days. On the 6th day, the cells were incubated in serum-free medium with or without corticosterone, the conditioned medium was collected 24 h later, and the medium was assayed for IL-6 by ELISA. […] The ability of corticosterone to suppress IL-6 secretion by senescent cells was not peculiar to HCA2 cells.

[4] = tested on: NF-κB; assay: NF-κB reporter-luciferase transactivation assay; assay type: cell-based, human; conditions: 0.5 μM RU-486 or 2.5 ng mL^−1 IL-1α
Description: Nuclear extracts were prepared using the nuclear extract kit (Active Motif), and NF-κB DNA binding was determined using the TransAM NF-κB p65 kit (Active Motif). For transactivation assays, cells infected with the NF-κB reporter-luciferase lentivirus were lysed in buffer (Promega), and luciferase activity was normalized to cell number, as described (Freund et al., 2011, EMBO J. 30:1536-1548).

C[C@]12CC[C@@H](O)C[C@@H]1CC[C@@H]1[C@@H]2CC[C@]2(C)C(=O)CC[C@@H]12 [androsterone]
IL-6 secretion (ELISA) [1]: suppressed IL-6 secretion
ATP levels [2]: without altering ATP levels

Cc1ccc(S(=O)(=O)NC(=O)NN2CCCCCC2)cc1 [tolazamide]
IL-6 secretion (ELISA) [1]: suppressed IL-6 secretion
ATP levels [2]: without altering ATP levels

CC(C)(C)NC(=O)[C@H]1CC[C@H]2[C@@H]3CC[C@H]4NC(=O)C=C[C@]4(C)[C@H]3CC[C@]12C [finasteride]
IL-6 secretion (ELISA) [1]: suppressed IL-6 secretion
ATP levels [2]: without altering ATP levels

Nc1cc(N2CCCCC2)nc(N)[n+]1[O-] [minoxidil]
ATP levels [2]: without altering ATP levels

C[C@]12CC[C@@H]3c4ccc(O)cc4CC[C@H]3[C@@H]1CC[C@@H]2O [estradiol-17-beta]
IL-6 secretion (ELISA) [1]: suppressed IL-6 secretion

C/C(=C(\CCOP(=O)(O)O)SC(=O)c1ccccc1)N(C=O)Cc1cnc(C)nc1N [benfotiamine]
IL-6 secretion (ELISA) [1]: suppressed IL-6 secretion
ATP levels [2]: without altering ATP levels

Cc1ccc(S(=O)(=O)NC(=O)NN2CC3CCCC3C2)cc1 (stereo not shown) [gliclazide]
IL-6 secretion (ELISA) [1]: suppressed IL-6 secretion
ATP levels [2]: without altering ATP levels

C#C[C@]1(O)CC[C@H]2[C@@H]3CCC4=CC(=O)CC[C@@H]4[C@H]3CC[C@@]21CC [norgestrel-(−)-D]
IL-6 secretion (ELISA) [1]: suppressed IL-6 secretion

Recombinant IL-1α: recombinant IL-1α protein added to glucocorticoid-treated senescent cells
IL-6 secretion suppressed by corticosterone and cortisol, added recombinant IL-1α [3]: rescued the suppression of IL-6 secretion
NF-κB transactivation activity, co-treatment with either glucocorticoid [4]: rescued NF-κB transactivation activity

C[C@]12C=CC(=O)C=C1CC[C@@H]1[C@@H]2C(=O)C[C@@]2(C)[C@H]1CC[C@]2(O)C(=O)CO [prednisone]
IL-6 secretion (ELISA) [1]: suppressed IL-6 secretion
ATP levels [2]: without altering ATP levels

CCCNC(=O)NS(=O)(=O)c1ccc(Cl)cc1 [chlorpropamide]
IL-6 secretion (ELISA) [1]: suppressed IL-6 secretion
ATP levels [2]: without altering ATP levels
